Read-outs that look alike come from different tables or passages of the source. Starred links: 1 amine or outer side, 2 acyl side, 3 side chain; linkers in the order of their positions; H or OH if unused. Positions of bridges follow the written chain, without caps; N, C: chain ends. Non-standard residues stand in square brackets, D forms with d. Residues, ends and D or L forms follow the SMILES beside them. X3 = O=C([C@]1(CC=[*:3])CCCN1[*:1])[*:2]; Bta = N[C@@H](Cc1csc2ccccc12)C(=O)O; tBuAla = CC(C)(C)C[C@H](N)C(=O)O; 3Thi = N[C@@H](Cc1ccsc1)C(=O)O; R5 = C=CCCC[C@@](C)(N)C(=O)O; S5 = C=CCCC[C@](C)(N)C(=O)O; Aib = CC(C)(N)C(=O)O
Molecular target: T1, full-length beta-Catenin (Uniprot ID P35222) (Homo sapiens, UniProt P35222)
T1 construct: 10 nM full-length beta-Catenin (Uniprot ID P35222)
T1 sequence (P35222 1-781): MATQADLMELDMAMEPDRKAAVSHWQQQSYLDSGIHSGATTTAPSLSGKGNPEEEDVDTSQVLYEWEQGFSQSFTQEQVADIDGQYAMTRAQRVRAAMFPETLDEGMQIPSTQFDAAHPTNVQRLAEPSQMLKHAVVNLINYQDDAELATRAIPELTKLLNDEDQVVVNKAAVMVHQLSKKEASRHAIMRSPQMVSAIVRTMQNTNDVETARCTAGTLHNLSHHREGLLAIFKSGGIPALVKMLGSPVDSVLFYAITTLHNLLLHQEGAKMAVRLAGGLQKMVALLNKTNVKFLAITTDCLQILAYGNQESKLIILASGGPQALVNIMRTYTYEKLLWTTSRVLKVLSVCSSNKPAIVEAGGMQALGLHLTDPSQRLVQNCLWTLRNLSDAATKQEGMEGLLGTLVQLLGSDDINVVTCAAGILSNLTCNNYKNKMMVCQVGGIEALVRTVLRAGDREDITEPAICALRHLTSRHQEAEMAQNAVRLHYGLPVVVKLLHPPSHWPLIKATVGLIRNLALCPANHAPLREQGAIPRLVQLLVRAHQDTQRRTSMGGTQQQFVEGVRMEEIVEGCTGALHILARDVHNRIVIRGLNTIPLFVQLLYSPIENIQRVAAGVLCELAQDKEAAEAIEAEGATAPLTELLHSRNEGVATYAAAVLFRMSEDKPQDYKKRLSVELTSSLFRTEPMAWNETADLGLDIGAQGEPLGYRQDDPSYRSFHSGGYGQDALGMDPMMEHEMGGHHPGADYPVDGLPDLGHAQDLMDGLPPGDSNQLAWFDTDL
Test: Fluorescence polarization IC50 (beta-catenin / 5FAM-TCF4 10-53 competition)
Type: binding
Details: fluorescence polarization

Structure (SMILES) | IC50 (read-out: beta-Catenin FP IC50) | IC50 (beta-Catenin FP IC50 (nM))
CC(=O)N1CCC[C@]12CC=CCCCC1(CCCC=CCCCOC(=O)N3CC[C@@](C(=O)N[C@@H](Cc4ccsc4)C(=O)N[C@@H](Cc4csc5ccccc45)C(=O)N[C@@H](CCC(N)=O)C(N)=O)(C3)NC(=O)[C@H](CC(N)=O)NC(=O)[C@H](Cc3cccc(Cl)c3)NC(=O)[C@H](C)NC(=O)[C@H](C)NC(=O)[C@H]([C@@H](C)O)NC(=O)[C@H](CC(N)=O)NC1=O)NC(=O)[C@H](CC(C)(C)C)NC(=O)[C@H](CC(=O)O)NC2=O (stereo partly drawn) [I-2014, Ac-PL3-Asp-Npg-B5-Asn-Thr-Ala-Ala-3C1F-Asn-PyrS2-3Thi-BztA-Gln-NH2] | 1180 nM | 
CC(=O)N1CCC[C@]12CC=CCCCC1(CCCC=CCCCOC(=O)N3CC[C@@](C(=O)N[C@@H](Cc4ccsc4)C(=O)N[C@@H](Cc4csc5ccccc45)C(=O)N[C@@H](CCC(N)=O)C(N)=O)(C3)NC(=O)[C@H](CC(N)=O)NC(=O)[C@H](Cc3ccccc3)NC(=O)[C@H](C)NC(=O)[C@H](C)NC(=O)[C@H](CC(N)=O)NC(=O)[C@H](CCC(N)=O)NC1=O)NC(=O)[C@H](CC(C)(C)C)NC(=O)[C@H](CC(=O)O)NC2=O (stereo partly drawn) [I-1560, Ac-PL3-Asp-Npg-B5-Gln-Asn-Ala-Ala-Phe-Asn-PyrS2-3Thi-BztA-Gln-NH2] | 368 nM | 
CC(=O)N1CCC[C@]12CC=CCCCC1(CCCC=CCCCOC(=O)N3CC[C@@](C(=O)N[C@@H](Cc4ccsc4)C(=O)N[C@@H](Cc4csc5ccccc45)C(=O)N[C@@H](CCC(N)=O)C(N)=O)(C3)NC(=O)[C@H](CC(C)C)NC(=O)[C@H](Cc3ccccc3)NC(=O)[C@H](C)NC(=O)[C@H](C)NC(=O)[C@H](CN(CC(=O)O)C(=O)C(F)(F)F)NC(=O)[C@H](CC(=O)O)NC1=O)NC(=O)[C@H](CC(C)(C)C)NC(=O)[C@H](CC(=O)O)NC2=O (stereo partly drawn) [I-1730, Ac-PL3-Asp-Npg-B5-Asp-[CF3CO]GA-Ala-Ala-Phe-Leu-PyrS2-3Thi-BztA-Gln-NH2] | 38 nM | 
CC(=O)N1CCC[C@]12CC=CCCCC1(CCCC=CCCCOC(=O)N3CC[C@@](C(=O)N[C@@H](Cc4ccsc4)C(=O)N[C@@H](Cc4csc5ccccc45)C(=O)N[C@@H](CCC(N)=O)C(N)=O)(C3)NC(=O)[C@H](CC(C)C)NC(=O)[C@H](Cc3ccccc3)NC(=O)[C@H](C)NC(=O)[C@H](C)NC(=O)[C@H](CC(=O)S)NC(=O)[C@H](CC(=O)O)NC1=O)NC(=O)[C@H](CC(C)(C)C)NC(=O)[C@H](CC(=O)O)NC2=O (stereo partly drawn) [I-1947, Ac-PL3-Asp-Npg-B5-Asp-AspSH-Ala-Ala-Phe-Leu-PyrS2-3Thi-BztA-Gln-NH2] | 253 nM | 
CC(=O)N1CCC[C@]12CC=CCCCC1(CCCC=CCCCOC(=O)N3CC[C@@](C(=O)N[C@@H](Cc4ccccc4C(F)(F)F)C(=O)N[C@@H](Cc4csc5ccccc45)C(=O)N[C@@H](CCC(=O)N(C)C)C(=O)N[C@@H](C)C(N)=O)(C3)NC(=O)[C@H](CC(C)C)NC(=O)[C@H](Cc3ccccc3)NC(=O)[C@H](C)NC(=O)[C@H](C)NC(=O)[C@H](Cc3cccc(C(=O)O)c3)NC(=O)[C@H](CC(=O)O)NC1=O)NC(=O)[C@H](CC(C)(C)C)NC(=O)[C@H](CC(=O)O)NC2=O (stereo partly drawn) [I-2466, Ac-PL3-Asp-Npg-B5-Asp-3COOHF-Ala-Ala-Phe-Leu-PyrS2-2F3MeF-BztA-Me2Gln-Ala-NH2] | 15 nM | 
CC(=O)N1CCC[C@]12CC=CCCCC1(CCCC=CCCCOC(=O)N3CC[C@@](C(=O)N[C@@H](Cc4ccsc4)C(=O)N[C@@H](Cc4csc5ccccc45)C(=O)N[C@@H](CCC(N)=O)C(N)=O)(C3)NC(=O)[C@H](CC(C)C)NC(=O)[C@H](Cc3ccccc3)NC(=O)[C@H](C)NC(=O)[C@H](C)NC(=O)[C@H](CN3CCCC[C@H]3C(=O)O)NC(=O)[C@H](CC(=O)O)NC1=O)NC(=O)[C@H](CC(C)(C)C)NC(=O)[C@H](CC(=O)O)NC2=O (stereo partly drawn) [I-1968, Ac-PL3-Asp-Npg-B5-Asp-S2COOPipA-Ala-Ala-Phe-Leu-PyrS2-3Thi-BztA-Gln-NH2] | 29 nM | 
CC(=O)N1CCC[C@]12CCCCCCC1(CCCCCCCCCC[C@@](C)(C(=O)N[C@@H](Cc3ccsc3)C(=O)N[C@@H](Cc3csc4ccccc34)C(=O)N[C@@H](CCC(N)=O)C(N)=O)NC(=O)[C@H](CC(N)=O)NC(=O)[C@H](Cc3ccccc3)NC(=O)[C@H](C)NC(=O)[C@H](C)NC(=O)[C@H](CC(=O)O)NC(=O)[C@H](CC(=O)O)NC1=O)NC(=O)[C@H](CC(C)(C)C)NC(=O)[C@H](CC(=O)O)NC2=O (stereo partly drawn) [I-1825, Ac-PL3-Asp-Npg-B5-Asp-Asp-Ala-Ala-Phe-Asn-S7-3Thi-BztA-Gln-NH2] | 366 nM | 
CC(=O)N1CCC[C@]12CC=CCCCC1(CCCC=CCCCOC(=O)N3CC[C@@](C(=O)N[C@@H](Cc4ccccc4)C(=O)N[C@@H](Cc4csc5ccccc45)C(=O)N[C@@H](CCC(N)=O)C(N)=O)(C3)NC(=O)[C@H](CC(C)C)NC(=O)[C@H](Cc3ccccc3)NC(=O)[C@H](C)NC(=O)[C@H](CCCCNC(C)C)NC(=O)[C@H]([C@@H](C)O)NC(=O)[C@H](CC(=O)O)NC1=O)NC(=O)[C@H](CCC(N)=O)NC(=O)[C@H](CC(N)=O)NC2=O (stereo partly drawn) [I-1584, Ac-PL3-Asn-Gln-B5-Asp-Thr-iPrLys-Ala-Phe-Leu-PyrS2-Phe-BztA-Gln-NH2] | 2440 nM | 
CC(=O)N1CCC[C@]12CCCCCCC1(CCCCCCCCOC(=O)N3CC[C@@](C(=O)N[C@@H](Cc4ccsc4)C(=O)N[C@@H](Cc4csc5ccccc45)C(=O)N[C@@H](Cc4cccc(C(N)=O)c4)C(N)=O)(C3)NC(=O)[C@H](CC(C)C)NC(=O)[C@H](Cc3ccccc3)NC(=O)[C@H](C)NC(=O)[C@H](C)NC(=O)[C@H](CN(CC(=O)O)CC(F)(F)F)NC(=O)[C@H](CC(=O)O)NC1=O)NC(=O)[C@H](CC(C)(C)C)NC(=O)[C@H](CC(=O)O)NC2=O (stereo partly drawn) [I-1718, Ac-PL3-Asp-Npg-B5-Asp-TfeGA-Ala-Ala-Phe-Leu-PyrS2-3Thi-BztA-3cbmf-NH2] | 382 nM | 
CC(=O)N1CCC[C@]12CCCCCCC1(CCCCCCCCOC(=O)N3CC[C@@](C(=O)N[C@@H](Cc4ccsc4)C(=O)N[C@@H](Cc4csc5ccccc45)C(=O)N[C@H](C(N)=O)C(C)C)(C3)NC(=O)[C@H]([C@@H](C)O)NC(=O)[C@H](Cc3ccccc3)NC(=O)[C@H](C)NC(=O)[C@H](C)NC(=O)[C@H](CN(CC(=O)O)CC(F)(F)F)NC(=O)[C@H](CC(=O)O)NC1=O)NC(=O)[C@H](CC(C)(C)C)NC(=O)[C@H](CC(=O)O)NC2=O (stereo partly drawn) [I-1758, Ac-PL3-Asp-Npg-B5-Asp-TfeGA-Ala-Ala-Phe-Thr-PyrS2-3Thi-BztA-Val-NH2] | 235 nM | 
CC(=O)N1CCC[C@]12CC=CCCC[C@@](C)(C(=O)N[C@@H](CC(=O)O)C(=O)N[C@@H](CC(=O)O)C(=O)NC(C)(C)C(=O)N[C@@H](C)C(=O)N[C@@H](Cc1ccccc1)C(=O)N[C@]1(C)CCCC=CCCC[C@@](C)(C(=O)N[C@@H](C)C(N)=O)NC(=O)[C@H](Cc3csc4ccccc34)NC(=O)[C@H](Cc3ccsc3)NC(=O)[C@H](C)NC1=O)NC(=O)[C@H](CC(C)(C)C)NC(=O)[C@H](CC(=O)O)NC2=O [I-1781, Ac-PL3-Asp-Npg-S5-Asp-Asp-Aib-Ala-Phe-R5-Ala-3Thi-BztA-S5-Ala-NH2] (Ac-[X3]D[tBuAla][S5]DD[Aib]AF[R5]A[3Thi][Bta][S5]A-NH2; staple 1-4, 10-14 (inferred)) | 8450 nM | 
CC(=O)N1CCC[C@]12CC=CCCCC1(CCCC=CCCCOC(=O)N3CC[C@@](C(=O)N[C@@H](Cc4ccsc4)C(=O)N[C@@H](Cc4csc5ccccc45)C(=O)N[C@@H](CCC(N)=O)C(N)=O)(C3)NC(=O)[C@H](CC(C)C)NC(=O)[C@H](Cc3ccccc3)NC(=O)[C@H](C)NC(=O)[C@H](C)NC(=O)[C@H](CC(=O)OCCSSc3ccccc3)NC(=O)[C@H](CC(=O)O)NC1=O)NC(=O)[C@H](CC(C)(C)C)NC(=O)[C@H](CC(=O)O)NC2=O (stereo partly drawn) [I-1956, Ac-PL3-Asp-Npg-B5-Asp-[EtSSPh]AspE-Ala-Ala-Phe-Leu-PyrS2-3Thi-BztA-Gln-NH2] |  | 849 nM
CC(=O)N1CCC[C@]12CC=CCCCC1(CCCC=CCCCOC(=O)N3CC[C@@](C(=O)N[C@@H](Cc4ccsc4)C(=O)N[C@@H](Cc4csc5ccccc45)C(=O)N[C@@H](CCC(N)=O)C(N)=O)(C3)NC(=O)[C@H](CC(N)=O)NC(=O)[C@H](Cc3ccccc3)NC(=O)[C@H](C)NC(=O)[C@H](CCCCNC(C)C)NC(=O)[C@H]([C@@H](C)O)NC(=O)[C@H](CC(N)=O)NC1=O)NC(=O)[C@H](CC(C)(C)C)NC(=O)[C@H](CC(=O)O)NC2=O (stereo partly drawn) [I-2005, Ac-PL3-Asp-Npg-B5-Asn-Thr-iPrLys-Ala-Phe-Asn-PyrS2-3Thi-BztA-Gln-NH2] | 357 nM | 
CC(=O)N1CCC[C@]12CC=CCCCC1(CCCC=CCCCOC(=O)N3CC[C@@](C(=O)N[C@@H](Cc4ccccc4)C(=O)N[C@@H](Cc4csc5ccccc45)C(=O)N[C@@H](CCC(N)=O)C(N)=O)(C3)NC(=O)[C@H](CC(C)C)NC(=O)[C@H](Cc3ccccc3)NC(=O)[C@H](C)NC(=O)[C@H](CCCCNC(C)C)NC(=O)[C@H](Cc3c[nH]cn3)NC(=O)[C@H](CC(=O)O)NC1=O)NC(=O)[C@H](CC1CCCCC1)NC(=O)[C@H](CC(N)=O)NC2=O (stereo partly drawn) [I-2348, Ac-PL3-Asn-Cha-B5-Asp-His-iPrLys-Ala-Phe-Leu-PyrS2-Phe-BztA-Gln-NH2] | 179 nM | 

— patent US20240116985A1, “STAPLED PEPTIDES AND METHODS THEREOF” (priority 2020, published 2024)
